Data as given in paper PMC9693223 (Molecules, 2022).
Like-named read-outs stand apart in the source and are kept apart here.

Experiments:
TcrNT2 [1] = target: T1, TcrNT2 (Trypanosoma cruzi, UniProt Q4DHG0); test: Transport of [^3H]-thymidine by TcrNT2 expressed in L. mexicana Cas9^ΔNT1 (Km, inhibition); type: cell-based; conditions: for δ(ΔG°) with respect to ΔG° of thymidine: change in ΔG° relative to thymidine; for δ(ΔG°), pairwise comparison with uridine: pairwise comparison vs. uridine; for δ(ΔG°), pairwise comparison with 2′-deoxyuridine: pairwise comparison vs. 2′-deoxyuridine
Experimental: These values can be used to calculate the Gibbs free energy of interaction ΔG°, but these experiments cannot distinguish between the test compound being transported or merely binding to the transporter and inhibiting the transit of the [^3H]-thymidine.
Transport assays were conducted with radiolabeled nucleosides [methyl-^3H]-thymidine (20 Ci/mmol; PerkinElmer (Waltham, MA, USA)) and [2,8-^3H]-adenosine (40 Ci/mmol; American Radiolabeled Chemicals (ARC, St-Louis, MO, USA)). Cells were harvested from mid-log phase cultures by centrifugation and washed into an assay buffer (AB) as described, at a density of 1 × 10^8 cells mL^−1. Transport assays were then performed exactly as described previously, using an oil-stop protocol. Briefly, 100 µL of cell suspension (10^7 cells) was mixed with 100 µL of [^3H]-substrate at 2 × final concentration and incubated for a pre-set time prior to the addition of 800 µL of ice-cold AB containing a saturating concentration of unlabeled permeant (usually 1 or 2.5 mM) and immediate centrifugation through an oil layer to separate cells from extracellular radiolabel. The 100 µL of [^3H]-substrate could also contain unlabeled substrate or an inhibitor at 2 × concentration, as appropriate. Next, the microfuge tubes were flash frozen in liquid nitrogen; the tips with the cell pellets cut off and collected in scintillation tubes. Cells were solubilized by incubation in 2% SDS under gentle shaking on a rocking platform prior to the addition of scintillation fluid (Scintilogic U, Lablogic, Sheffield, UK). The tubes stored in the dark overnight before counting in a 300SL Hidex Scintillation Counter (Lablogic).
Michaelis-Menten constants (Km) were calculated by plotting transport rates of [^3H]-substrate against the concentration, using the Michaelis-Menten equation V0 = Vmax([substrate]/([substrate] + Km)) and non-linear regression in GraphPad Prism 8. Inhibition constants (Ki) were calculated using the Cheng-Prusoff equation: Ki = IC50/(1 + (L/Km)), where L represents the radiolabel concentration. The IC50 was obtained by a non-linear regression of the inhibition curve of transport rate versus inhibitor concentration, using an equation for a sigmoid curve with variable slope (GraphPad Prism 8). The Gibbs free energy ΔG° was obtained using the equation ΔG° = −RTln(Ki), in which R is the gas constant and T is the absolute temperature. As discussed previously, these equations apply to competitive rather than non-competitive inhibition. Given that only close analogues of the substrate were used as potential inhibitors and that Hill slopes were consistently close to −1, it is very likely that inhibition was indeed competitive.

TcrNT2 [2] = target: T1, TcrNT2; conditions: cited from earlier work; for Ki: earlier characterization, TcrNT2 expressed in T. brucei, ref Campagnaro et al. [30], read-out: Ki on thymidine transport by TcrNT2
[3] = system: L. mexicana Cas9 promastigotes; test: Alamar blue drug sensitivity assay, L. mexicana Cas9 promastigotes; type: cell-based, Leishmania mexicana; conditions: Leishmania mexicana, 120 h, 72 h + 48 h resazurin, at least 3 independent determinations, read-out: EC50 (µM) AVG ± SEM, Cas9
Source text: (§1) We used L. mexicana promastigotes of the Cas9 strain developed by Beneke at al. to generate the ΔNT1 strain, and from there the Cas9^ΔNT1+TcrNT2 (see below); The original Cas9 strain was generously donated by Prof. Eva Gluenz (University of Bern, Switzerland). All strains in standard HOMEM (GIBCO, Life Technologies, Paisley, UK) supplemented with 10% heat-inactivated fetal bovine serum (FBS; PAA Laboratories, Linz, Austria) and 1% of a penicillin–streptomycin solution (10,000 U mL^−1 each; Life Technologies) at 25 °C, as described.
(§2) The Alamar blue assay (resazurin sodium salt) was used to determine the drug sensitivity of the L. mexicana promastigotes in vitro. The assay is based on the reduction of resazurin sodium salt (blue and non-fluorescent) to resorufin (pink color and fluorescent) by live cells. HOMEM medium with 10% FBS (100 μL) was added to all wells of a white 96-well plate apart from the first well. 200 μL of a known concentration of test compounds was diluted in HOMEM medium and placed in the first well. Compounds were tested in one plate and every compound was diluted over two rows (23 concentrations), leaving the last well of every dilution as a negative control having 100 μL HOMEM medium. Next, 100 μL of L. mexicana culture at a density of 2 × 10^6 cells mL^−1 was added into every well in the plate and incubated for 72 h at a temperature of 25 °C after which resazurin sodium salt (Sigma) (20 μL of a solution of 12.5 mg in 100 mL PBS) was added and the plate was incubated under the same conditions for a further 48 h. Fluorescence was measured in a FLUOstar OPTIMA plate reader (BMG Labtech, Germany), at a wavelength of 544 nm for excitation and 620 nm for emission. The EC50 values and fluorescence data were determined and plotted by the GraphPad Prism 8 Software using an equation for a sigmoid curve with variable slope. Pentamidine was used as positive control and every experiment was performed 3–4 times independently.

[4] = system: L. mexicana Cas9^ΔNT1 promastigotes; test: Alamar blue drug sensitivity assay, L. mexicana Cas9^ΔNT1 promastigotes; type: cell-based, Leishmania mexicana; conditions: EC50 Cas9^ΔNT1 relative to L. mexicana Cas9
Source text: as §1, §2

[5] = system: L. mexicana Cas9^ΔNT1+TcrNT2 promastigotes; test: Alamar blue drug sensitivity assay, L. mexicana Cas9^ΔNT1+TcrNT2 promastigotes; type: cell-based, Leishmania mexicana; conditions: Cas9^ΔNT1+TcrNT2 in comparison to L. mexicana Cas9^ΔNT1
Source text: as §1, §2

[6] = calculated from Km or Ki at 25 °C
[7] = read-out: Ki on the transport of [^3H]-thymidine by TcrNT2
[8] = TcrNT2 in L. mexicana Cas9^ΔNT1, […] [^3H]-thymidine, IC50 converted to Ki (Cheng-Prusoff), read-out: Ki on the transport of [^3H]-thymidine by TcrNT2

T1 sequence (Q4DHG0 entry or part of it): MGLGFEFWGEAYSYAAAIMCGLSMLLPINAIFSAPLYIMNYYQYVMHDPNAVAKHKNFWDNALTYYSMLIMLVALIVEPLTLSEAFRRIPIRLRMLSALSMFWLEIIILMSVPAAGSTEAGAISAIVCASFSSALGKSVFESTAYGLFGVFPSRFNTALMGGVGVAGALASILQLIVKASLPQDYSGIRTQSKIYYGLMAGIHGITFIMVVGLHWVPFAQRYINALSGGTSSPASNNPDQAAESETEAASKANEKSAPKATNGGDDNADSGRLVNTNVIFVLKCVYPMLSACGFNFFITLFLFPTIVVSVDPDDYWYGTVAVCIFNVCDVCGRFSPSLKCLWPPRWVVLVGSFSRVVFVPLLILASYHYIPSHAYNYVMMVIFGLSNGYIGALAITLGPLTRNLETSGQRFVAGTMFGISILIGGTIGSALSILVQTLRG

SMILES	EC50 [3]	RF vs. Cas9 (resistance factor) [4]	RF vs. ΔNT1 (resistance factor) [5]	further results
Cc1cn([C@H]2C[C@H](O)[C@@H](CO)O2)c(=S)[nH]c1=O [2-thiothymidine]	–	–	–	Ki (TcrNT2 [1]): 3.38 ± 0.26 µM; ΔG° (Gibbs free energy of interaction) (TcrNT2 [1]): -31.2 kJ/mol
O=c1ccn([C@H]2C[C@H](O)[C@@H](CO)O2)c(=O)[nH]1 [2′-deoxyuridine]	–	–	–	ΔG° (Gibbs free energy of interaction) (TcrNT2 [1]; [6]): -33.6 kJ/mol; δ(ΔG°) with respect to ΔG° of thymidine (TcrNT2 [1]): -3.99 kJ/mol; Ki (TcrNT2 [1]; [7]): 1.31 ± 0.002 µM; Ki (TcrNT2 [2]): 1.11 ± 0.1 µM
Cc1cn([C@H]2CC[C@@H](CO)O2)c(=O)[nH]c1=O [3′-deoxythymidine]	–	–	–	ΔG° (Gibbs free energy of interaction) (TcrNT2 [1]; [6]): -19.9 kJ/mol; δ(ΔG°) with respect to ΔG° of thymidine (TcrNT2 [1]): -17.6 kJ/mol; Ki (TcrNT2 [1]; [7]): 322 ± 22.6 µM
Cc1cn([C@H]2C[C@H](O)[C@@H](CO)O2)c(=O)[nH]c1=S [4-thiothymidine]	–	–	–	ΔG° (Gibbs free energy of interaction) (TcrNT2 [1]; [6]): -31.7 kJ/mol; Ki (TcrNT2 [1]; [7]): 2.79 ± 0.11 µM
O=c1[nH]c(=O)n([C@@H]2O[C@H](CO)[C@@H](O)[C@H]2O)cc1Br [5-Br-uridine]	–	–	–	Ki (TcrNT2 [1]; [8]): 30.1 ± 1.8 µM; ΔG° (Gibbs free energy of interaction) (TcrNT2 [1]; [6]): -25.8 kJ/mol; δ(ΔG°) with respect to ΔG° of thymidine (TcrNT2 [1]): -11.8 kJ/mol; δ(ΔG°), pairwise comparison with uridine (TcrNT2 [1]): -4.3 kJ/mol
O=c1[nH]c(=O)n([C@H]2C[C@H](O)[C@@H](CO)O2)cc1I [5-I-2′-deoxyuridine]	–	–	–	Ki (TcrNT2 [1]; [8]): 0.19 ± 0.04 µM; ΔG° (Gibbs free energy of interaction) (TcrNT2 [1]; [6]): -38.3 kJ/mol; δ(ΔG°), pairwise comparison with 2′-deoxyuridine (TcrNT2 [1]): 4.79 kJ/mol; δ(ΔG°), pairwise comparison with 2′-deoxyuridine (TcrNT2 [1]; listed as 5-I-2′-dUrd): -4.8 kJ/mol
Cc1cn([C@@H]2O[C@H](CO)[C@@H](O)[C@H]2O)c(=O)[nH]c1=O [5-Me-uridine, 5-methyluridine]	–	–	–	ΔG° (Gibbs free energy of interaction) (TcrNT2 [1]; [6]): -26.0 kJ/mol; δ(ΔG°) with respect to ΔG° of thymidine (TcrNT2 [1]): -11.6 kJ/mol; δ(ΔG°) with respect to ΔG° of thymidine (TcrNT2 [1]; listed as 5-Me-Urd): 11.6 kJ/mol; δ(ΔG°) with respect to ΔG° of thymidine (TcrNT2 [1]; listed as 5-methyluridine): 11.57 kJ/mol; δ(ΔG°), pairwise comparison with uridine (TcrNT2 [1]): -4.50 kJ/mol; Ki (TcrNT2 [1]; [7]): 28 ± 0.4 µM
Cc1cn([C@H]2C[C@H](O)[C@@H](C)O2)c(=O)[nH]c1=O [5′-deoxythymidine]	–	–	–	ΔG° (Gibbs free energy of interaction) (TcrNT2 [1]; [6]): -32.3 kJ/mol; δ(ΔG°) with respect to ΔG° of thymidine (TcrNT2 [1]): -5.26 kJ/mol; Ki (TcrNT2 [1]; [7]): 2.2 ± 0.03 µM
C[C@H]1O[C@@H](n2ccc(=O)[nH]c2=O)[C@H](O)[C@@H]1O [5′-deoxyuridine]	–	–	–	δ(ΔG°), pairwise comparison with uridine (TcrNT2 [1]): -4.41 kJ/mol; Ki (TcrNT2 [1]; [7]): 1020 ± 57 µM
Cc1ncnc2c1c(-c1ccc(Cl)cc1)cn2[C@@H]1O[C@H](CO)[C@@H](O)[C@H]1O [CL4501]	~100 µM	0.84	2.2	–
CNc1ncnc2c1ccn2[C@@H]1O[C@H](CO)[C@@H](O)[C@H]1O [CL5564]	> 100 µM	–	>5.6	–
Nc1ncnc2c1c(I)cn2[C@@H]1O[C@H](CO)[C@@H](O)[C@H]1O [FH3141]	1.08 ± 0.202 µM	13.4	7.83	–
C#Cc1cn([C@@H]2O[C@H](CO)[C@@H](O)[C@H]2O)c2ncnc(N)c12 [FH3143]	0.12 ± 0.021 µM	7.74	3.11	–
Nc1ncnc2c1c(F)cn2[C@@H]1O[C@H](CO)[C@@H](O)[C@H]1O [FH3167, 7-F-tubercidin]	0.22 ± 0.09 µM	40.7	41.9	–
Nc1ncnc2c1c(C(F)(F)F)cn2[C@@H]1O[C@H](CO)[C@@H](O)[C@H]1O [FH6367, 7-(trifluoromethyl)-tubercidin]	1.42 ± 0.177 µM	1.44	1.91	–
Nc1ncnc2c1c(Br)cn2[C@@H]1O[C@H](CO)C[C@H]1O [FH7429-UP]	8 ± 0.8 µM	1.17	2.27	–
Nc1ncnc2c1c(-c1ccccc1)cn2[C@@H]1O[C@H](CO)C[C@H]1O [FH8480]	> 500 µM	–	–	–
C#Cc1cn([C@@H]2O[C@H](CO)C[C@H]2O)c2ncnc(N)c12 [FH8505]	47.2 ± 1.47 µM	1.13	1.47	–
Nc1ncnc2c1c(-c1ccc(Cl)c(Cl)c1)cn2[C@@H]1O[C@H](CO)C[C@H]1O [FH8513, 7-(3,4-dichlorophenyl)-3′-deoxytubercidin]	~100 µM	0.94	3	–
Nc1ncnc2c1c(F)cn2[C@@H]1O[C@H](CO)C[C@H]1O [FH8517, 7-F-3′-deoxytubercidin]	3.18 ± 0.78 µM	3.93	1.28	–
Nc1ncnc2c1c(I)cn2[C@@H]1O[C@H](CO)[C@@H](F)[C@H]1O [JB526, 7-I,3′-F-tubercidin]	~100 µM	~0.84	11.6	–
Nc1ncnc2c1c(F)cn2[C@@H]1O[C@H](CO)[C@@H](F)[C@H]1O [JB588, 7-F,3′-F-tubercidin]	0.51 ± 0.093 µM	17.3	2.15	–
Nc1ncnc2c1c(-c1ccc(Cl)cc1)nn2[C@@H]1O[C@H](CO)[C@@H](O)[C@H]1O [JB602]	> 500 µM	–	–	–
Nc1ncnc2c1c(Br)nn2[C@@H]1O[C@H](CO)[C@@H](O)[C@H]1O [JBMAM021]	3.8 ± 0.66 µM	79.9	0.97	–
Nc1ncnc2c1cnn2[C@@H]1O[C@H](CO)[C@@H](O)[C@H]1O [JBMAM030, aminopurinol riboside]	7.81 ± 0.9 µM	39.8	0.94	–
N=C(N)c1ccc(OCCCCCOc2ccc(C(=N)N)cc2)cc1 [Pentamidine]	0.87 ± 0.104 µM	1.43	1.11	–
O=c1ccn([C@@H]2O[C@H](CO)[C@@H](O)[C@H]2O)c(=O)[nH]1 [Uridine]	–	–	–	ΔG° (Gibbs free energy of interaction) (TcrNT2 [1]; [6]): -21.5 kJ/mol; δ(ΔG°) with respect to ΔG° of thymidine (TcrNT2 [1]): -16.1 kJ/mol; δ(ΔG°) with respect to ΔG° of thymidine (TcrNT2 [1]; listed as uridine): 16.1 kJ/mol; δ(ΔG°), pairwise comparison with 2′-deoxyuridine (TcrNT2 [1]): 12.1 kJ/mol; Ki (TcrNT2 [1]; [7]): 172 ± 8 µM; fold lower affinity than thymidine (TcrNT2 [2]; TcrNT2 expressed in T. b. brucei, ref [30]): 300 fold
Nc1ccn([C@@H]2O[C@H](CO)[C@@H](O)[C@H]2O)c(=O)n1 [cytidine]	–	–	–	Ki (TcrNT2 [2]): 728 ± 71 µM
